From ChEMBL document CHEMBL1811877, “Bioactive neolignans and lignans from the bark of Machilus robusta” (J Nat Prod, 2011)
pIC50: −log10 of the molar value. Activity calls are given as the source filed them. No cut-off for these calls is given here.

Legend:
PC-12 [1] = assay: Cytoprotection against serum deprivation-induced cellular damage of rat PC12 cells assessed as increase in cell viability at 10 uM after 48 hrs by MTT assay (reference value: 66.6 +/- 9.2%); format: functional
[2] = test system: Human immunodeficiency virus 1; assay: Antiviral activity against Human immunodeficiency virus 1 assessed as inhibition of viral replication; format: functional, organism-based
[3] = test system: Human immunodeficiency virus 1; assay: Antiviral activity against Human immunodeficiency virus 1 assessed as inhibition of viral replication at 0.001 uM; format: functional
WB-F344 = assay: (§1) Hepatoprotective activity in rat WB-F344 cells assessed as inhibition of D-galactosamine-induced cell damage at 10 uM treated 1 hr before D-galactosamine challenge after 24 hrs by MTT assay; format: functional
PC-12 [4] = assay: Cytoprotection against rotenone-induced toxicity in rat PC12 cells assessed as increase in cell viability at 10 uM after 48 hrs by MTT assay (reference value: 73.0 +/- 9.6%); format: functional
[5] = as §1; format: functional

| Compound | Activity (PC-12 [1]) | inhibition [2] | inhibition [3] | inhibition (WB-F344) | Activity (PC-12 [4]) | inhibition at 10 µM [5] [%] | pIC50 [2] | inhibition at 0.001 µM [3] [%] |
| --- | --- | --- | --- | --- | --- | --- | --- | --- |
| COc1cc(C[C@H](C)[C@H](COC(C)=O)Cc2cc(OC)c(O)c(OC)c2)ccc1O | inactive | inactive | inactive | inactive | inactive |  |  |  |
| COc1cc2c(cc1O)[C@H](c1cc(OC)c(O)c(OC)c1)[C@@H](C)[C@@H](C)C2 | inactive | inactive | inactive |  | inactive | 64 |  |  |
| COc1cc([C@@H]2OC[C@H](Cc3cc(OC)c(O)c(OC)c3)[C@H]2C)ccc1O | inactive | inactive | inactive | inactive | inactive |  |  |  |
| COc1cc(C[C@H](C)[C@H](C)Cc2cc(O)c(O)c(OC)c2)ccc1O | inactive | inactive | inactive |  | 96.2% | 68 |  |  |
| COc1cc2c(cc1O)[C@H](c1cc(OC)c(O)c(OC)c1)[C@@H](C)[C@@H](COC(C)=O)C2 | inactive | inactive | inactive | inactive | inactive |  |  |  |
| COc1cc(C[C@H](C)[C@H](C)Cc2cc(OC)c(O[C@H](C)[C@@H](O)c3ccc(O)c(OC)c3)c(OC)c2)ccc1O | inactive |  | inactive | inactive | inactive |  | 5.60 |  |
| COc1cc([C@@H]2OC[C@H]3[C@@H]2CO[C@H]3c2ccc(O)c(OC)c2)ccc1O [(-)-PINORESINOL] | 73.2% |  |  |  |  |  |  |  |
| COc1cc([C@H](O)[C@@H](C)Oc2ccc([C@H]3c4cc(O)c(OC)cc4C[C@@H](C)[C@@H]3C)cc2OC)ccc1O | inactive | inactive | inactive | inactive | inactive |  |  |  |
| COC(=O)c1cc(OC)c2c(c1-c1c(CO)cc(OC)c3c1OCO3)OCO2 [BICYCLOL] |  |  |  |  |  | 67 |  |  |
| COc1cc([C@H]2O[C@@H](c3cc(OC)c(O)c(OC)c3)[C@H](C)[C@@H]2C)ccc1O | inactive | inactive | inactive | inactive | inactive |  |  |  |
| COc1cc(C[C@H](C)[C@H](C)Cc2cc(OC)c(O)c(OC)c2)ccc1O | inactive | inactive | inactive | inactive | inactive |  |  |  |
| COc1cc2c(cc1O)C(=O)[C@H](C)[C@H](C)C2 | inactive | inactive | inactive | inactive | inactive |  |  |  |
| COc1cc2c(cc1O)[C@H](c1ccc(O)c(O)c1)[C@@H](C)[C@@H](C)C2 | inactive | inactive | inactive | inactive | inactive |  |  |  |
| COc1cc(C[C@H](C)[C@H](C)Cc2ccc(O)cc2)ccc1O | inactive | inactive | inactive | inactive | inactive |  |  |  |
| COc1cc2c(cc1O)C(=O)[C@H](C)[C@@H](C)C2 | inactive | inactive | inactive | inactive | inactive |  |  |  |
| COc1cc2c(cc1O)[C@H](c1cc(O)c(O)c(OC)c1)[C@@H](C)[C@@H](C)C2 | inactive | inactive | inactive |  | inactive | 77.2 |  |  |
| COc1cc2c(cc1O)[C@H](c1cc(OC)c(OC)c(OC)c1)[C@@H](C)[C@@H](C)C2 | inactive | inactive | inactive | inactive | inactive |  |  |  |
| COc1cc(C[C@H](C)[C@H](C)Cc2cc(OC)c(OC)c(OC)c2)ccc1O | inactive | inactive | inactive | inactive | inactive |  |  |  |
| COc1cc([C@H]2c3c(cc(OC)c(O)c3OC)C[C@@H](CO)[C@@H]2CO)cc(OC)c1O | 79.4% |  |  |  |  |  |  |  |
| COc1cc(C[C@H](COC(C)=O)[C@H](C)Cc2cc(OC)c(O)c(OC)c2)ccc1O | inactive | inactive | inactive | inactive | inactive |  |  |  |
| O=C1Nc2ccc(Cl)cc2[C@@](C#CC2CC2)(C(F)(F)F)O1 [EFAVIRENZ] |  |  |  |  |  |  |  | 42.5 |
| COc1cc(C[C@H](C)[C@H](C)Cc2cc(OC)c(O[C@@H](C)[C@@H](O)c3ccc(O)c(OC)c3)c(OC)c2)ccc1O | inactive |  | inactive | inactive | inactive |  | 5.70 |  |
